Patent US12162865B2, “Methods of treating cancer” (Epizyme, Inc., priority 2012, dated 2024)
“Also recorded” adds a separate entry of the source. Like-named read-outs stand apart in the source and are kept apart here.

Experiments:
[1] = test system: ATRX mutant SCLC line NCI-H446; test: Response of ATRX mutant SCLC lines to Compound E, NCI-H446; type: cell-based
[2] = test system: G401 SNF mutant cell line; test: Soft agar growth, G401; type: cell-based; conditions: after 7 days
[3] = test system: SNF5 mutant cell line G402; test: Response of cell lines to Compound E (FIG. 2), G402; type: cell-based
[4] = test system: SNF5 mutant cell line A204; test: Response of cell lines to Compound E (FIG. 2), A204; type: cell-based
[5] = test system: ATRX mutant SCLC line SW1271; test: Response of ATRX mutant SCLC lines to Compound E, SW1271; type: cell-based
[6] = test system: LNCAP prostate cancer cells; test: Cell growth inhibition in vitro, LNCAP; type: cell-based
[7] = test system: ATRX mutant SCLC line NCI-H841; test: Response and morphology of ATRX mutant SCLC line NCI-H841 with Compound E; type: cell-based
[8] = test system: SNF5 mutant cell line G401; test: Response of cell lines to Compound E (FIG. 2), G401; type: cell-based
G401 cells = conditions: pretreated 7 days, replated on day 0
Procedure: SJCRH30 cells were cultured in RPMI+10% FBS. A204, G401, and G402 cells were cultured in McCoys 5a+10% FBS. KYM-1 cells were cultured in DMEM/Ham's F12+10% FBS.
Plates were read on Day 0, Day 4, and Day 7 using CellTiter-Glo® (Promega), with compound/media being replenished on Day 4. On Day 7, the 6-well plates were trypsinized, centrifuged, and resuspended in fresh media for counting by Vi-Cell. Cells from each treatment were replated at the original density in 96-well plates in triplicate. Cells were allowed to adhere to the plate overnight, and cells were treated as on Day 0. […] Averages of triplicates were used to plot proliferation over the timecourse, and calculate IC50 values.

H3K27Me3 in G401 cells = conditions: 4 days, acid-extracted histones, immunoblot
Procedure: (§1) A204, G401, and G402 cells were cultured in McCoys 5a+10% FBS.
(§2) Cells were pelleted, washed with ice cold PBS, resuspended in ice cold RIPA buffer, and incubated on ice for 5 minutes. Lysates were sonicated 3× for 10 sec at 50% power, then incubated on ice for 10 minutes. Lysates were then centrifuged at max speed for 15 minutes at 4 degrees in a table top centrifuge. Clarified lysates were aliquoted to a fresh tube, and protein concentrations for WCL were determined by BCA assay (Pierce).

KARPAS-422 xenografts = test: KARPAS-422 xenograft in mice; type: in vivo, nude mice; conditions: for antitumor effect, intermittent dosing schedules: 7-day on/7-day off and 21 day on/7 day off
EHMT1 = EHMT1 (Homo sapiens, UniProt Q9H9B1); test: Histone methyltransferase inhibition, EHMT1; type: biochemical
OCI-LY19 cells = conditions: OCI-LY19 (EZH2 wild type for residue Y641)
PRMT3 = PRMT3 (Homo sapiens, UniProt O60678); test: Histone methyltransferase inhibition, PRMT3; type: biochemical; conditions: read-out: % Inhibition at 1 μM Compound A, mean and SD of duplicate experiments
DOT1L = DOT1L (Homo sapiens, UniProt Q8TEK3); test: Histone methyltransferase inhibition, DOT1L; type: biochemical
CARM1 = CARM1 (Homo sapiens, UniProt Q86X55); test: Histone methyltransferase inhibition, CARM1; type: biochemical
SMYD2 = SMYD2 (Homo sapiens, UniProt Q9NRG4); test: Histone methyltransferase inhibition, SMYD2; type: biochemical
[9] = test system: SMARCB1 regulated genes in RD control cells; test: Gene expression analysis (qPCR), RD cells; type: cell-based; conditions: 1 μM
Procedure: (§3) Gene expression was normalized to 18S (AB #Hs99999901_s1) and fold change was calculated using the ΔΔCt method. For the in vivo samples, the average Ct value+/−SD was determined for each dose group and fold change compared to vehicle dose group was calculated using the ΔΔCt method.

[10] = test system: RD SMARCB1 wild-type cells; test: Cell cycle analysis (flow cytometry) and TUNEL assay, RD; type: cell-based; conditions: 1 μM, up to 14 days
Procedure: (§4) Cell cycle analysis and TUNEL assay were performed using a Guava® flow cytometer, following the manufacturer's protocol.

WHSC1 = WHSC1 (Homo sapiens, UniProt O96028); test: Histone methyltransferase inhibition, WHSC1; type: biochemical
PRMT5/MEP50 = PRMT5/MEP50 (Homo sapiens, UniProt O14744); test: Histone methyltransferase inhibition, PRMT5/MEP50; type: biochemical
[11] = test system: G402 SMARCB1-deleted cells; test: Cell morphology, G402 cells; type: cell-based; conditions: 1 μM, 14 days
[12] = test system: G401 SMARCB1-deleted cells; test: Cell cycle analysis (flow cytometry) and TUNEL assay, G401; type: cell-based; conditions: 1 μM, up to 14 days
Procedure: as §4

SETD7 = SETD7 (Homo sapiens, UniProt Q8WTS6); test: Histone methyltransferase inhibition, SETD7; type: biochemical; conditions: read-out: % Inhibition at 1 μM Compound A, mean and SD of duplicate experiments
[13] = test system: subcutaneous G401 xenografts
Procedure: ELISA: Histones were isolated from tumors as previously described (Daigle et al) and were prepared in equivalent concentrations (0.5 ng/ul for H3 and 4 ng/ul for H3K27Me3) in coating buffer (PBS with 0.05% BSA). […] The plates were sealed and incubated overnight at 4° C. The following day, plates were washed 3 times with 300 μL/well PBST (PBS with 0.05% Tween 20; 10×PBST, KPL #51-14-02) on a Bio Tek plate washer. Plates were blocked with 300 μL/well of diluent (PBS+2% BSA+0.05% Tween 20), incubated at room temperature for 2 hours, and washed 3 times with PBST. All antibodies were diluted in diluent. […] Plates were incubated for 90 minutes at room temperature and washed 3 times with PBST. […] Plates were washed 4 times with PBST. For detection, 100 μL/well of TMB substrate (BioFx Laboratories, #TMBS) was added and plates incubated in the dark at room temperature for 5 minutes. Reaction was stopped with 100 μL/well 1N H2SO4. Absorbance at 450 nm was read on SpectraMax M5 Microplate reader.
Xenograft study: All the procedures related to animal handling, care and the treatment in this study were performed according to the guidelines approved by the Institutional Animal Care and Use Committee (IACUC) of Shanghai Chemparner following the guidance of the Association for Assessment and Accreditation of Laboratory Animal Care (AAALAC). […] Animal body weights were measured every day during the first week, then twice weekly for the remainder of the study. Tumor size was measured twice weekly in two dimensions using a caliper, and the volume was expressed in mm^3. […] The remaining mice continued dosing for one more week, and from day 29, treatment was stopped and the mice were enrolled in a tumor growth delay study. Mice were observed as individuals until they reached the tumor weight endpoint (2000 mm^3) or until day 60 (whichever came first).

PRMT8 = PRMT8 (Homo sapiens, UniProt Q9NR22); test: Histone methyltransferase inhibition, PRMT8; type: biochemical
SMYD3 = SMYD3 (Homo sapiens, UniProt Q9H7B4); test: Histone methyltransferase inhibition, SMYD3; type: biochemical; conditions: read-out: % Inhibition at 1 μM Compound A, mean and SD of duplicate experiments
Pfeiffer cells = conditions: Pfeiffer (EZH2 A677G); 11-day proliferation
H3K27Me3 in RD cells = conditions: 4 days, acid-extracted histones, immunoblot
Procedure: as §1, §2

[14] = test system: WSU-DLCL2 Human Lymphoma Cells; test: Washout experiments, WSU-DLCL2 proliferation (LCC); type: cell-based
WSU-DLCL2 cells [15] = conditions: with mouse plasma protein binding considered
[16] = test system: SMARCB1 regulated genes in G401 cells; test: Gene expression analysis (qPCR), G401 cells; type: cell-based; conditions: 1 μM, up to 7 days, time-dependent
Procedure: as §3

EHMT2 = EHMT2 (Homo sapiens, UniProt Q96KQ7); test: Histone methyltransferase inhibition, EHMT2; type: biochemical
WSU-DLCL2 cells [17] = test: Cell cycle progression and apoptosis (TUNEL), WSU-DLCL2; type: cell-based, human
PRMT6 = PRMT6 (Homo sapiens, UniProt Q96LA8); test: Histone methyltransferase inhibition, PRMT6; type: biochemical; conditions: read-out: % Inhibition at 1 μM Compound A, mean and SD of duplicate experiments
WHSC1L1 = WHSC1L1 (Homo sapiens, UniProt Q9BZ95); test: Histone methyltransferase inhibition, WHSC1L1; type: biochemical
PRMT1 = PRMT1 (Homo sapiens, UniProt Q99873); test: Histone methyltransferase inhibition, PRMT1; type: biochemical
[18] = Oral administration to rodents (bioavailability); type: in vivo; conditions: administered to rodents
[19] = read-out: % Inhibition at 1 μM Compound A, mean and SD of duplicate experiments
[20] = 4-day Compound A, 11-day Washout
[21] = 7-day Compound A, 7-day Washout

Chain of CARM1 (Q86X55 whole entry, species assumed): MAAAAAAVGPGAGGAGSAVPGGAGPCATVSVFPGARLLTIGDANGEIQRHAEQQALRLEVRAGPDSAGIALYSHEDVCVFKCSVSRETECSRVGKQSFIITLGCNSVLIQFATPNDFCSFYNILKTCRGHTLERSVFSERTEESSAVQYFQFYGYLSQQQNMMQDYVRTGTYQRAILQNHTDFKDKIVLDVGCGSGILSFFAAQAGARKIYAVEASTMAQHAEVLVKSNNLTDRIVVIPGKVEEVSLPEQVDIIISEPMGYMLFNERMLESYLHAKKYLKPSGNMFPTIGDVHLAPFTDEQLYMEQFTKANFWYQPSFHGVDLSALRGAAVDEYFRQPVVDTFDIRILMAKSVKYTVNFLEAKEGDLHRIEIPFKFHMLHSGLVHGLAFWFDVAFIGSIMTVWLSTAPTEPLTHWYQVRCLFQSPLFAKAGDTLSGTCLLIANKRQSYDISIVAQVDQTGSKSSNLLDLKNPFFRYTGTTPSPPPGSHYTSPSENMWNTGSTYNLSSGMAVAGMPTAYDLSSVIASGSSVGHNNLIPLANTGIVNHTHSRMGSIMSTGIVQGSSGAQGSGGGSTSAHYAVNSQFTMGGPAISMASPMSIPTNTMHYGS
Chain of WHSC1L1 (Q9BZ95 whole entry, species assumed): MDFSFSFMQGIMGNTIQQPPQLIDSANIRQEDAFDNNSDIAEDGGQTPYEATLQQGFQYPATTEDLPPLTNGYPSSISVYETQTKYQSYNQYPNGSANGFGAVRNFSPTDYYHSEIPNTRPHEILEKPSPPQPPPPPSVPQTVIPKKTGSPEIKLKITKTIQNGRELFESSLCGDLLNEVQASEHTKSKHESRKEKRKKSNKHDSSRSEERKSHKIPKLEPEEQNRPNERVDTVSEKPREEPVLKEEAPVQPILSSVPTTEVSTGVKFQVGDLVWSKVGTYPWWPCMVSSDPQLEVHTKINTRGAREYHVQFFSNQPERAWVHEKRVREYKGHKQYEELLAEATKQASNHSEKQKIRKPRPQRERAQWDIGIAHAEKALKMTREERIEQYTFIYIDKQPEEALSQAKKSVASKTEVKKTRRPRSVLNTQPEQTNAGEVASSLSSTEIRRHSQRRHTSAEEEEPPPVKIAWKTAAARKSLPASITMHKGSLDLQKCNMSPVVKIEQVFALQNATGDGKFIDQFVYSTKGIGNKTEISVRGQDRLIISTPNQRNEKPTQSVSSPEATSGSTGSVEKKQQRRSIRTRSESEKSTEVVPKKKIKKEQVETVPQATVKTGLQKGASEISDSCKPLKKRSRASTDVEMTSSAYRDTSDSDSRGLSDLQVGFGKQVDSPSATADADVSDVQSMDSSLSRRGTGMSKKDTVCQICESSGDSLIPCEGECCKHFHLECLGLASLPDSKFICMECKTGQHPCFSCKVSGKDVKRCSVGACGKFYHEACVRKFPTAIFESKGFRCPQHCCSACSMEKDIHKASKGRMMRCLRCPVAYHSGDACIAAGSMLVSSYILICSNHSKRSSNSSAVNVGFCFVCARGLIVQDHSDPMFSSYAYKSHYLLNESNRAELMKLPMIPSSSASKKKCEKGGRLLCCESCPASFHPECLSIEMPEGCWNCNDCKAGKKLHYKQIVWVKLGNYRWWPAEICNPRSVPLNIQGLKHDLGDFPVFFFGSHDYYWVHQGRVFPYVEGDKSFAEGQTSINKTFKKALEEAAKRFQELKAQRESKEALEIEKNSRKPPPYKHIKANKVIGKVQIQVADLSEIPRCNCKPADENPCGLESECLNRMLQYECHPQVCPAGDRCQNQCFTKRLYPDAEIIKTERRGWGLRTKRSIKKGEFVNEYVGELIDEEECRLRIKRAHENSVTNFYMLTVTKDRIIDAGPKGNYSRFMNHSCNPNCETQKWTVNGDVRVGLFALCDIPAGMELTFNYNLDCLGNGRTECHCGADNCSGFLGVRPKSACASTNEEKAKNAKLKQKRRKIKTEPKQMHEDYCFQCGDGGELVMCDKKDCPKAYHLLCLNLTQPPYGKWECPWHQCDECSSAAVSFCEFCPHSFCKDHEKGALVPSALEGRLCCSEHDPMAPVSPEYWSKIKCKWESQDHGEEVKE
Chain of EHMT2 (Q96KQ7 whole entry, species assumed): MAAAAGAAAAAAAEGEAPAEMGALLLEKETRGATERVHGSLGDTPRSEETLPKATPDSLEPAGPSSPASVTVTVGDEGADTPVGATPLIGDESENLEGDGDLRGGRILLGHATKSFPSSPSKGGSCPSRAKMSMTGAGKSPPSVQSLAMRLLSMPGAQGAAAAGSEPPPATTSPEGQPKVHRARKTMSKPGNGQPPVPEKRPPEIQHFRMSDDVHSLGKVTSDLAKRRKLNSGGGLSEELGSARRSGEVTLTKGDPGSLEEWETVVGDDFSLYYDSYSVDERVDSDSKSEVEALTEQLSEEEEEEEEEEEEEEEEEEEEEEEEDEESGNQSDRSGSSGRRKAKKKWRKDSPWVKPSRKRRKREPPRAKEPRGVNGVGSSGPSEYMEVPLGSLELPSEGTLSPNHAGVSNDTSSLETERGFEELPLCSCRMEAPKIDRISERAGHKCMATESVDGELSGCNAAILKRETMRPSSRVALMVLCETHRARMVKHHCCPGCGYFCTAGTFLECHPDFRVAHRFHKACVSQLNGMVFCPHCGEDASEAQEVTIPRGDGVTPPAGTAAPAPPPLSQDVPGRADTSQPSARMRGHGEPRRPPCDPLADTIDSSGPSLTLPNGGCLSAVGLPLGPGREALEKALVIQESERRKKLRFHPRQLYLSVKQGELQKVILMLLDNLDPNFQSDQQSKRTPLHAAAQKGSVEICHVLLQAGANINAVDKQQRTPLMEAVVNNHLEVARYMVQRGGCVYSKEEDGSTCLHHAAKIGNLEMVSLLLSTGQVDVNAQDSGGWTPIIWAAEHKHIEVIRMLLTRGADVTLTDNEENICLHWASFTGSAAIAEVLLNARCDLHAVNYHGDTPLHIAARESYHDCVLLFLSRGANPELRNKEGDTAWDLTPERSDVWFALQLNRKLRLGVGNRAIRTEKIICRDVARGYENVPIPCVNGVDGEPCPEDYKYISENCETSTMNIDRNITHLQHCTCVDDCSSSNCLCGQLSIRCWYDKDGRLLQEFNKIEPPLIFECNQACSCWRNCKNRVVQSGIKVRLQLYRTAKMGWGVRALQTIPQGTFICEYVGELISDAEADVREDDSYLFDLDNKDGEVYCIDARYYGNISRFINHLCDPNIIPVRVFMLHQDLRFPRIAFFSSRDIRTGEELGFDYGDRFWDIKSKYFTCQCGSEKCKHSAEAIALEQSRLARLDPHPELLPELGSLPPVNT
Chain of PRMT8 (Q9NR22 whole entry, species assumed): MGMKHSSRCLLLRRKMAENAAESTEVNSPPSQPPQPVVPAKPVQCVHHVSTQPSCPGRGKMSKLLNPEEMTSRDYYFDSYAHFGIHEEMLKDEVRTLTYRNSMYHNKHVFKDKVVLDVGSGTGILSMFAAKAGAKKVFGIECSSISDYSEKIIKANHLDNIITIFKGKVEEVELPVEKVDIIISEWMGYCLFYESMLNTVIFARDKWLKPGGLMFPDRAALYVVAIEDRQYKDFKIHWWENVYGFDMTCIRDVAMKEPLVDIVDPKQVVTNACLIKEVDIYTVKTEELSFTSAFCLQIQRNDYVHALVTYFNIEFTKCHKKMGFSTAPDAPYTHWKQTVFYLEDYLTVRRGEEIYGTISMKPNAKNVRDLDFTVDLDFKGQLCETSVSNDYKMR
Chain of WHSC1 (O96028 whole entry, species assumed): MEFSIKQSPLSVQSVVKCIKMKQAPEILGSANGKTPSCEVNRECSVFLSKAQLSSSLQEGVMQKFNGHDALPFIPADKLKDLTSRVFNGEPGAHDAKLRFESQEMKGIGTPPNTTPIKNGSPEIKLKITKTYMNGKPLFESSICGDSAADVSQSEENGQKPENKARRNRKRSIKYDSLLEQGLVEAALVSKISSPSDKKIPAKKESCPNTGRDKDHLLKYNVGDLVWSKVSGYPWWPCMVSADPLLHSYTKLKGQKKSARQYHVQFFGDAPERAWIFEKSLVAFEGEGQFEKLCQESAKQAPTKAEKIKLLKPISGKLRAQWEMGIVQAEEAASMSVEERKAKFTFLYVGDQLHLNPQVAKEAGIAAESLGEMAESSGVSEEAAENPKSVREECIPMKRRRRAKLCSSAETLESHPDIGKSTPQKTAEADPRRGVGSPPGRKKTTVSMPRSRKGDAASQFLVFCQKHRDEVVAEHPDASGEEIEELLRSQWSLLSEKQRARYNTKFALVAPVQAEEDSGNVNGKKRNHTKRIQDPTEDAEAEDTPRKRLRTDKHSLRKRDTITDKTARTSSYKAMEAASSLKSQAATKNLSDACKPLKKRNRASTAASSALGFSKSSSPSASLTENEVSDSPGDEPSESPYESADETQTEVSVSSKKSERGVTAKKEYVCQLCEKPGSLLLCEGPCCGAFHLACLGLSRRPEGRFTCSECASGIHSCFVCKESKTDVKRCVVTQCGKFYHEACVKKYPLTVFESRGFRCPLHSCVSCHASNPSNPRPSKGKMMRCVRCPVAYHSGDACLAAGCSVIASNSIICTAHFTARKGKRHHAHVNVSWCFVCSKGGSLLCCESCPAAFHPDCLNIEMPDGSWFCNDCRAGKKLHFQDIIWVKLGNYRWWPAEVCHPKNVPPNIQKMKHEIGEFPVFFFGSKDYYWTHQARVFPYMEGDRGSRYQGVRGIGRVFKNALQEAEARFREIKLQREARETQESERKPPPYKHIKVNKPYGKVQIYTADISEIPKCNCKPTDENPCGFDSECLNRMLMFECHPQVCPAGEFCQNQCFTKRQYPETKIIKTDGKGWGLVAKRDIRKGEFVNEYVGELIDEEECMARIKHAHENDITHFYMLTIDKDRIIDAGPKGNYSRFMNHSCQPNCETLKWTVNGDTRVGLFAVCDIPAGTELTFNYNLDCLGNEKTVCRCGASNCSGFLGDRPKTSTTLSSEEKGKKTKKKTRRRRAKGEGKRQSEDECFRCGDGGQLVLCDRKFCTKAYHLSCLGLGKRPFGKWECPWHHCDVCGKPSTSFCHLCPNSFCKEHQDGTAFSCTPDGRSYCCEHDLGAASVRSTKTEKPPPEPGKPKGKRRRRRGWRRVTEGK

For `CCN(c1cc(-c2ccc(CN3CCOCC3)cc2)cc(C(=O)NCc2c(C)cc(C)[nH]c2=O)c1C)[C@H]1CC[C@H](N(C)C)CC1` [Compound E, N-((4,6-dimethyl-2-oxo-1,2-dihydropyridin-3-yl)methyl)-5-(((1r,4r)-4-(dimethylamino)cyclohexyl)(ethyl)amino)-4-methyl-4′-(morpholinomethyl)-[1,1′-biphenyl]-3-carboxamide], the response [1] was “responding”, the “response in soft agar compared to wild type cells RD” value [2] was “responding” and the “response compared to wild type cell lines RD and SJCRH30” value [3] was “selectively respond”. The “response compared to wild type cell lines RD and SJCRH30” value [4] was “selectively respond”, the response [5] was “responding” and the cell growth inhibition [6] was “dose-dependent cell growth inhibition”. The response [7] was “responding”, the cell morphology ([7]; 4.1E-02 uM or 3.3 uM) was “changes morphology” and the “response compared to wild type cell lines RD and SJCRH30” value [8] was “selectively respond”.
With `CCN(c1cc(-c2ccc(CN3CCOCC3)cc2)cc(C(=O)NCc2c(C)cc(C)[nH]c2=O)c1C)C1CCOCC1` [Compound A, N-((4,6-dimethyl-2-oxo-1,2-dihydropyridin-3-yl)methyl)-5-(ethyl (tetrahydro-2H-pyran-4-yl)amino)-4-methyl-4′-(morpholinomethyl)-[1,1′-biphenyl]-3-carboxamide] the “sensitivity in vitro (cell viability, CellTiter-Glo)” value (G401 cells) was “sensitive”, the “specificity for inhibition of cellular histone methylation” value (H3K27Me3 in G401 cells) was “selective inhibition of cellular H3K27 methylation” and the “antitumor effect, intermittent dosing schedules” value (KARPAS-422 xenografts; 90 mg/kg BID) was “tumor growth inhibition”. The “antitumor effect, intermittent dosing schedules” value (KARPAS-422 xenografts; 361 mg/kg BID) was “complete regressions”, the “tumor H3K27Me3 levels” value (KARPAS-422 xenografts; 7-day study, nude mice, BID and QD schedules) was “dose-dependent reduction of tumor H3K27Me3 levels” and the “tumor re-growth after cessation of dosing” value (KARPAS-422 xenografts; higher doses, up to 90 days after cessation of dosing) was “no re-growth”. For the same compound, the IC50 (EHMT1; one experiment) was greater than 50 µM, the inhibition at 1 µM (EHMT1; [19]) was 6 ± 6% and the “growth over 11 days” value (OCI-LY19 cells) was “not significantly affected”. It also gave an inhibition at 1 µM (PRMT3) of 2 ± 2%, an IC50 (DOT1L; one experiment) greater than 50 µM and an inhibition at 1 µM (DOT1L; [19]) of 2 ± 8%. The IC50 (CARM1; mean of duplicate experiments) was greater than 50 µM, the inhibition at 1 µM (CARM1; read-out: % Inhibition at 1 μM Compound A, mean and standard deviation of duplicate experiments) was 5 ± 3% and the IC50 (SMYD2; one experiment) was greater than 50 µM. For the same compound, the inhibition at 1 µM (SMYD2; [19]) was 1 ± 2%, the “expression of the SMARCB1 regulated genes” value [9] was “minimal effect on expression” and the “cell cycle and apoptosis compared to DMSO control” value [10] was “no changes in cell cycle or apoptosis”. It also gave an IC50 (WHSC1; one experiment) greater than 100 µM, an inhibition at 1 µM (WHSC1; [19]) of 8 ± 3% and an IC50 (PRMT5/MEP50; one experiment) greater than 50 µM. The inhibition at 1 µM (PRMT5/MEP50; [19]) was 2 ± 6%, the cell morphology [11] was “neuron-like morphology” and the “cell cycle (G1 arrest)” value [12] was “increase in the percentage of cells in G1 phase, and a concomitant decrease in S phase and G2/M phase after 7 days; also recorded: G1 arrest was observed as of day 7”. For the same compound, the “sub-G1 fraction and apoptotic cells (TUNEL assay)” value [12] was “increased in a time dependent manner; also recorded: apoptosis was induced as of day 11”, the inhibition at 1 µM (SETD7) was 4 ± 3% and the “tumor growth after the dosing period compared to vehicle” value ([13]; 125 mg/kg) was “significant tumor growth delay”. For the same compound, the “tumor growth after dosing stop compared to vehicle” value ([13]; 133 mg/kg) was “significant tumor growth delay”, the tumor re-growth ([13]; 250 or 500 mg/kg BID, 32 days after dose cessation) was “Re-growth was not observed” and the antitumor effect ([13]; 250 or 500 mg/kg twice daily (BID) for 21 to 28 days) was “practically eliminated”. For the same compound, the antitumor effect ([13]; 266 or 532 mg/kg BID for 28 days) was “eliminated”, the tumor re-growth ([13]; 266 or 532 mg/kg BID, study end, 32 days after dosing stop) was “re-growth was not observed” and the “plasma levels (systemic exposure)” value ([13]; 5 min before or 3 h after dosing on day 21, LC-MS/MS) was “dose-dependent increase in systemic exposure”. For the same compound, the “gene expression in G401 xenograft tumors” value ([13]; treated 21 days, qPCR) was “dose-dependent changes in the expression of CD133, PTPRK, DOCK4 and GLI1”, the “H3K27me3 in tumors (ELISA)” value ([13]; tumors harvested on day 21, maximum effect at 250 mg/kg) was “strong inhibition of H3K27me3” and the IC50 (PRMT8; one experiment) was greater than 50 µM. For the same compound, the inhibition at 1 µM (PRMT8; [19]) was 7 ± 3%, the inhibition at 1 µM (SMYD3) was 0% and the “increase in sensitivity over the Y641 mutant cell lines, measured by IC50 value” (Pfeiffer cells) was 20 fold. For the same compound, the “increase in sensitivity over the Y641 mutant cell lines, measured by LCC” value (Pfeiffer cells) was 300 fold, the “specificity for inhibition of cellular histone methylation” value (H3K27Me3 in RD cells) was “selective inhibition of cellular H3K27 methylation” and the “Day 11 LCC” value [14, 20] was 0.36 µM. For the same compound, the “Day 14 LCC” value [14, 20] was 0.42 µM, the “Day 11 LCC” value [14, 21] was 0.19 µM and the “Day 14 LCC” value [14, 21] was 0.075 µM. The “Day 11 LCC” value ([14]; No Washout) was 0.17 µM, the “Day 14 LCC” value ([14]; No Washout) was 0.11 µM and the “LCC for WSU-DLCL2 cells as plasma level” value (WSU-DLCL2 cells [15]) was 1652 ng/mL. For the same compound, the “expression of CDKN1A, CDKN2A and BIN1” value [16] was “up-regulated cell cycle inhibitors CDKN1A and CDKN2A and tumor suppressor BIN1”, the “expression of neuronal differentiation genes CD133, DOCK4, PTPRK” value [16] was “strongly induced expression of CD133, DOCK4 and PTPRK” and the IC50 (EHMT2; one experiment) was greater than 50 µM. For the same compound, the inhibition at 1 µM (EHMT2; [19]) was 7 ± 3%, the sub-G1 fraction (WSU-DLCL2 cells [17]; 1 μM, 7 days) was “no apparent increase in the sub-G1 fraction” and the cell cycle progression (WSU-DLCL2 cells [17]; 1 μM, apparent after 2 days, maximum after 4 days) was “increase in the percentage of cells in G1 phase, and a decrease in the percentage of cells in S phase and G2/M phase”. For the same compound, the “fraction of apoptotic cells (TUNEL assay)” value (WSU-DLCL2 cells [17]; day 14 compared to vehicle) was “significantly increased”, the inhibition at 1 µM (PRMT6) was 3 ± 3% and the IC50 (WHSC1L1; one experiment) was greater than 100 µM. For the same compound, the inhibition at 1 µM (WHSC1L1; [19]) was 9 ± 8%, the IC50 (PRMT1; one experiment) was greater than 50 µM and the inhibition at 1 µM (PRMT1; [19]) was 5 ± 4%. The oral bioavailability [18] was “excellent”.
